The results in this text go back to patent US9440941B2, “Substituted chroman-6-yloxy-cycloalkanes and their use as pharmaceuticals” (SANOFI, priority 2013, dated 2016).

Structures can show the parent of a compound that is named as a salt.

The assay addresses T1, human NCX1 (Homo sapiens, UniProt P32418).
T1 construct: expressed in transfected cells
In words: Inhibition of Ca2+ influx into cells (NCX1 reverse mode), FLIPR Fluo-4 assay. In kind it is cell-based. As to conditions: inhibition of NCX1 in reverse mode (Ca2+ influx into cells); read-out: NCX1rv IC50. An excerpt:
The sodium/calcium exchanger NCX1 can transport calcium ions and sodium ions through the cell membrane. The transport is an exchange of Ca^2+ and Na^+ in two directions depending on membrane potential and ion gradients. At the first direction, named “forward mode” or “calcium export mode”, Ca^2+ is transported out of the cell and Na^+ is transported into the cell. At the other direction, named “reverse mode” or “calcium import mode”, the transport directions are vice versa. The effect of the compounds of the invention on NCX1 was determined in CHO cells stably expressing human NCX1 (gene symbol SLC8A1; cf. WO 2009/115238). The assay is based on the monitoring of intracellular Ca^2+ concentrations using a calcium-sensitive fluorescence dye which is detected by means of a FLIPR device (Fluorimetric Imaging Plate Reader, Molecular Devices).
Assay Technology—Reverse Mode
The assay is based on the monitoring of intracellular Ca^2+ concentrations using the calcium-sensitive dye Fluo-4. CHO cells expressing NCX1 were loaded with the dye by means of the acetoxymethyl ester Fluo-4 AM (Invitrogen, F14202), which is cleaved intracellularly by esterase activity to yield the charged species of free Fluo-4. After an preincubation period with the test compound, Gramicidine (Sigma, G5002) was added. Gramicidine is an ionophor for Na^+ ions mediating an increase of intracellular Na^+ ions. Consequently, intracellular Na^+ ions are exchanged against extracellular Ca^2+ ions (Ca^2+ influx, reverse mode). The intracellular elevation of Ca^2+ ions was detected by measuring the fluorescence of Fluo-4 at a wavelength of 520 nm by a FLIPR device.
Briefly, for the reverse mode transport assay 18000 cells per well were seeded into a 96 well microplate (Corning COSTAR 3904) and incubated overnight in culture medium (1× Nut Mix F12 (Ham) (Gibco, 21765-029); 10% (v/v) fetal calf serum (PAA Gold, A15-649); 450 μg/ml Geneticin (Gibco, 10131-027)). A total volume of 100 μl medium per well was used. For the preparation of the FLIPR assay, the culture medium was removed from the plates and 100 μl of dye solution (2 μM Fluo-4 AM; 0.02% (v/v) Pluronic F-127 (20%, Invitrogen, P3000MP); 0.1% (v/v) bovine albumin solution (30% (v/v), Sigma, A9205) in assay buffer (133.8 mM NaCl (Sigma, S5886); 4.7 mM KCl (Sigma, P3911); 1.25 mM MgCl2 (Merck, 1.05833.0250); 3.5 mM CaCl2 (Merck, 1.02083.0250); 5 mM glucose (Sigma, G7021); 10 mM Hepes (Sigma, H4034); 0.01% (v/v) Pluronic F-127 (5%, Sigma, P2443); 2.5 mM Probenecid (Maybridge, SB00915EB); pH 7.4)) were added into each well. The plates were incubated in the dark at room temperature for 80 min. After the incubation period, the dye solution was removed and the wells were washed with 100 μl of assay buffer. Then 80 μl of a solution of the test compound in assay buffer in different concentrations were added into the wells. The plates were incubated at 16° C. for 45 min. Meanwhile a 60 μM solution of Gramicidine in assay buffer (4° C.) was prepared and stored in the wells of a 96 well microplate (96 well microplate, polypropylene, U-shape (Greiner Bio-One, 650201)) at 4° C. until measurement was started. The fluorescence monitoring was performed at 240 measuring points with measurement intervals of 2 sec. After the fifth measuring point, 40 μl of the Gramicidine solution were added to each well of the assay plates to give a final Gramicidine concentration of 20 μM. For the determination of the IC50 values the minimal fluorescence value was subtracted from the maximal fluorescence value for all measuring points. The calculation of the IC50 values via the percentage inhibitions of Ca^2+ influx into cells (reverse mode) effected by the test compound was performed in Biost@t Speed 2.0.
As for “1,1-Dioxo-N-[4-(2-phenylchroman-6-yloxy)cyclohexyl]-tetrahydrothiophen-3-ylamine [compound 147]”, the IC50 turned out to be 700 nM.

Consider “4-(2-Phenylchroman-6-yloxy)-N-(2-piperidin-1-ylethyl)cyclohexylamine [compound 145]”, for which the IC50 was 2100 nM. On to “4-(2-Phenylchroman-6-yloxy)-N-(2-pyrrolidin-1-ylethyl)cyclohexylamine [compound 137]”, for which the IC50 came to 1300 nM. The value for “4-(2-Phenylchroman-6-yloxy)-N-(2-thiomorpholin-4-ylethyl)cyclohexylamine [compound 139]” was 1000 nM. The value for `NC[C@H]1CC[C@@H](Oc2ccc3c(c2)CCC(c2ccccc2)O3)CC1` (relative stereo) [compound 1, hydrochloride] was 500 nM; that for `N[C@H]1CC[C@@H](Oc2ccc3c(c2)CCC(c2ccccc2)O3)CC1` (relative stereo) [compound 2, hydrochloride] was 1300 nM. In the case of `CS(=O)(=O)NC[C@H]1CC[C@@H](Oc2ccc3c(c2)CCC(c2ccccc2)O3)CC1` (relative stereo) [compound 3], the IC50 came out at 700 nM.

Consider `CC(=O)NC[C@H]1CC[C@@H](Oc2ccc3c(c2)CCC(c2ccccc2)O3)CC1` (relative stereo) [compound 4], for which the IC50 came to 400 nM. Under `CC(=O)N[C@H]1CC[C@@H](Oc2ccc3c(c2)CCC(c2ccccc2)O3)CC1` (relative stereo) [compound 6] stands 500 nM; under `CC(=O)N[C@H]1CC[C@H](Oc2ccc3c(c2)CCC(c2ccccc2)O3)CC1` (relative stereo) [compound 7], 300 nM; under `CSCC(=O)N[C@H]1CC[C@H](Oc2ccc3c(c2)CCC(c2ccccc2)O3)CC1` (relative stereo) [compound 19], 100 nM. The value for `O=C(N[C@H]1CC[C@H](Oc2ccc3c(c2)CCC(c2ccccc2)O3)CC1)C1CCC1` (relative stereo) [compound 20] was 200 nM.

Regarding `CS(=O)(=O)CCC(=O)N[C@H]1CC[C@H](Oc2ccc3c(c2)CCC(c2ccccc2)O3)CC1` (relative stereo) [compound 21], the 50% inhibitory concentration (IC50) turned out to be 200 nM.

In the case of `O=C(Cn1cccn1)N[C@H]1CC[C@H](Oc2ccc3c(c2)CCC(c2ccccc2)O3)CC1` (relative stereo) [compound 24], the IC50 turned out to be 300 nM. On to `Cc1cc(CC(=O)N[C@H]2CC[C@H](Oc3ccc4c(c3)CCC(c3ccccc3)O4)CC2)on1` (relative stereo) [compound 25], for which the half-maximal inhibitory concentration (IC50) stood at 200 nM.

Consider `O=C(N[C@H]1CC[C@H](Oc2ccc3c(c2)CCC(c2ccccc2)O3)CC1)C1CC1` (relative stereo) [compound 26], for which the IC50 was determined as 100 nM.

On to `O=C(CC1CC1)N[C@H]1CC[C@H](Oc2ccc3c(c2)CCC(c2ccccc2)O3)CC1` (relative stereo) [compound 27], for which the half-maximal inhibitory concentration (IC50) is 200 nM. The value for `Cc1ccn(CC(=O)N[C@H]2CC[C@H](Oc3ccc4c(c3)CCC(c3ccccc3)O4)CC2)n1` (relative stereo) [compound 28] was 200 nM; that for `Cc1nc(C(=O)N[C@H]2CC[C@H](Oc3ccc4c(c3)CCC(c3ccccc3)O4)CC2)cs1` (relative stereo) [compound 29] was 300 nM. As to `COCCC(=O)N[C@H]1CC[C@H](Oc2ccc3c(c2)CCC(c2ccccc2)O3)CC1` (relative stereo) [compound 30], the IC50 was determined as 300 nM. Take `O=C(N[C@H]1CC[C@H](Oc2ccc3c(c2)CCC(c2ccccc2)O3)CC1)c1ccncc1F` (relative stereo) [compound 31]: the IC50 turned out to be 100 nM. With `O=C(N[C@H]1CC[C@H](Oc2ccc3c(c2)CCC(c2ccccc2)O3)CC1)C1CC1(F)F` (relative stereo) [compound 32], the 50% inhibitory concentration (IC50) came to 100 nM. Regarding `O=C(Cn1cncn1)N[C@H]1CC[C@H](Oc2ccc3c(c2)CCC(c2ccccc2)O3)CC1` (relative stereo) [compound 35], the IC50 worked out at 100 nM.

As a reminder, the IC50 is the concentration at which inhibition is half-maximal.
